Patent EP1661955A1, “Antifouling coating comprising a polymer with functional groups bonded to an enzyme” (Nederlandse Organisatie voor …, priority 2004, dated 2006)
Values after ≈ are worked out from the molar mass of the structure shown.

System: cyprid larvae of the barnacle species Balanus amphitrite
Assay: Barnacle settlement inhibition test, enzymes in solution
Assay type: in vivo
Conditions: reference compound in solution; concentration at which 50 % settlement reduction takes place
Description: The barnacle settlement test determines settlement inhibitory activity of biocidal compounds. For this test mass reared cyprid larvae of the barnacle species Balanus amphitrite are used. Adult barnacles, kept under standardised conditions, are forced to produce naupliar larvae that are collected and grown up separately at constant temperature and a fixed light:dark period. When larvae reach the cyprid stage, which is the settling phase, they are collected and set apart prior to testing.
Test compounds are usually tested in a range of concentrations prepared directly in seawater or after pre-dissolution in a suitable solvent. Settlement tests are carried out in polystyrene multiwell plates. Wells contain either 1 mL of a test solution or 1 mL of a control solution. Plates are incubated for 24 - 48 hours under constant temperature and light:dark regime to allow settlement and metamorphosis of the cyprids.
After incubation the wells are screened and numbers of settled and non-settled larvae counted using a stereo microscope. Numbers of settled larvae are expressed as a percentage of total larvae in the well. Average % settlement is calculated in four replicates. Subsequently a settlement response curve in relation to substance concentration is drawn and an EC50 value, concentration at which 50 % settlement reduction takes place, calculated. […]

Work on CCCCCCCCn1sc(Cl)c(Cl)c1=O [Seanine 211] yielded an EC50 value of 0.4 mg/L (≈ 1.42 µM).
